The values that follow come from patent publication US11839683B2, “Method of rapidly achieving therapeutic concentrations of triptans for treatment of migraines” (EMERGEX USA CORPORATION, priority 2016, dated 2023).

Like-named read-outs stand apart in the source and are kept apart here.

One data set relates to migraine. To be noted: cited from earlier work.
For data set [1] the following is noted: in vivo. From the text: (§1) This was a single-center, open-label, randomized five-way crossover study (Part 1) followed by a sequential study of two additional treatments (Parts 2 and 3). After obtaining informed consent and establishing eligibility, each subject received each of the seven study treatments once, followed by in-clinic monitoring and extensive blood sample collection for pharmacokinetic analysis. […] Plasma samples from the initial dosing days were sent to the analytical laboratory for analysis, and tolerability for each of the dose levels was summarized. […] During Part 3, subjects received a single 3.8 mg patch (applied with a 0.52 J applicator) and also completed identical procedures to the previous dosing days. After completion of the seven dosing days, subjects were assessed one final time and dismissed from the study.
(§2) PK parameters were summarized by treatment group using descriptive statistics (arithmetic means, standard deviations, coefficients of variation, sample size, minimum, maximum, and median).

A short description of another data set: clinical. To be noted: human, in vivo. As for the experimental part:
The final treatment administered was 3.8 mg on a 10 cm^2 patch using an applicator with 0.52 Joule of application energy in the intracutaneous microneedle system described herein. The products tested were:
as §1
Twenty subjects were enrolled in the study, 10 males and 10 females. The subjects mean age was 29 years±3.5 years with a mean BMI of 24.4±3.5.
as §2
Graphs of apparent dose linearity and proportionality of PK parameters (AUCt, AUCinf and Cmax) were compiled.

The conditions of data set [2]: cited from earlier work.
Where [3] appears, read: TABLET 80 mg, 1 hour, Sheftell et al 2003.
Where [4] appears, read: TABLET 80 mg, 2 hour, Sheftell et al 2003.
[5] abbreviates: TABLET 80 mg, 4 hour, Sheftell et al 2003.
[6] abbreviates: TABLET 10 mg, 1 hour, Tfelt-Hansen et al, 1998.
Where [7] appears, read: TABLET 10 mg, 2 hour, Tfelt-Hansen et al, 1998.
Setting [8] is: WAFER 5 mg, 1 hour, Ahrens et al, 1999.
Setting [9] is: WAFER 5 mg, 2 hour, Ahrens et al, 1999.
Where [10] appears, read: WAFER 10 mg, 1 hour, Ahrens et al, 1999.
Setting [11] is: WAFER 10 mg, 2 hour, Ahrens et al, 1999.
Where [12] appears, read: TABLET 100 mg, 1 hour, Tfelt-Hansen et al, 1998.
The mark [13] stands for this setting: TABLET 100 mg, 2 hour, Tfelt-Hansen et al, 1998.
Setting [14] is: TABLET 2.5 mg, 1 hour, Bomhof et al, 1999.
Setting [15] is: TABLET 2.5 mg, 2 hour, Bomhof et al, 1999.

In the case of `CN1CCC[C@@H]1Cc1c[nH]c2ccc(CCS(=O)(=O)c3ccccc3)cc12` [Eletriptan], the entries for the “% PAIN FREE” value with migraine (setting [3]), in the data set with migraine (setting [4]) and with migraine (setting [5]) were 10.0%, 27.0% and 49.0%, respectively. Moreover, the “% PAIN RELIEF” value in the data set with migraine (setting [3]) was 32.0%; in the data set with migraine (setting [4]), 59.0%; in the data set with migraine (setting [5]) it was 79.0%.

Turning to `CNCCc1c[nH]c2ccc(C[C@H]3COC(=O)N3)cc12` [N-desmethyl zolmitriptan], the “Mean AUCinf of N-desmethyl metabolite” value came to 14.55 ng·H/mL in data set [1] (human); 1.38 ng·H/mL in data set [1] (human, 0.48 mg); 8.17 ng·H/mL in data set [1] (human, 3.8 mg). Further, the “Mean Cmax of N-desmethyl metabolite” value in data set [1] (human) is recorded as 2.08 ng/mL; in data set [1] (human, 0.48 mg) it was 0.22 ng/mL; in data set [1] (human, 3.8 mg) it was 1.77 ng/mL. In addition, in data set [1] (human), the “Tmax of N-desmethyl metabolite” value is 54.7 to 65.0 min. Moreover, the “elimination half life (t1/2) of the metabolite” value in data set [1] (human, po) is reported as 2.7-3.31 H. Besides, the “time to peak plasma concentration of the N-desmethyl metabolite” value was “around 1 hour” in data set [1] and 2.7 h in data set [1] (po).

`CN(C)CCc1c[nH]c2ccc(C[C@H]3COC(=O)N3)cc12` [Oral Zolmi]: in “clinical” (po, 2.5 mg), the AUC0-last/Dose amounted to 8.6 and the “Tmax Med (Range)” value is recorded as 60 (30-240).

As for `CN(C)CCc1c[nH]c2ccc(Cn3cncn3)cc12` [Rizatriptan], the “% PAIN FREE” value in the data set on migraine (setting [6]) is on record as 10.4%; in the data set on migraine (setting [7]) it was 40.3%; in the data set on migraine (setting [8]) it was 7.7%; in the data set on migraine (setting [9]), 34.8%; in the data set with migraine (setting [10]) it was 13.0%; in the data set with migraine (setting [11]) it was 42.2%. Besides, the “% PAIN RELIEF” value with migraine (setting [6]) was 36.6%; with migraine (setting [7]), 67.0%; with migraine (setting [8]), 39.8%; with migraine (setting [9]), 58.6%; in the data set on migraine (setting [10]), 44.9%; with migraine (setting [11]), 74.1%.

Regarding `CNS(=O)(=O)Cc1ccc2[nH]cc(CCN(C)C)c2c1` [SC Suma], the “Tmax Med (Range)” value in “clinical” (sc, 6 mg) is listed as 10 (5-20).

For `CNS(=O)(=O)Cc1ccc2[nH]cc(CCN(C)C)c2c1` [Sumatriptan, sumatriptan], the “Tmax after oral tablet administration” value in data set [2] (oral tablet) was “about 2 hours”. The “bioavailability, oral administration (as a succinate)” value in data set [2] (oral) was “about 15%”. For the same compound, the “Tmax achieved earlier than the conventional tablet” value in data set [2] (rapid-release tablet formulation, on average) was 10 to 15 min. In the data set on migraine (setting [12]), the “% PAIN FREE” value was 7.8% and the “% PAIN RELIEF” value is 27.9%. In the data set with migraine (setting [13]), the “% PAIN FREE” value is given as 32.8% and the “% PAIN RELIEF” value is recorded as 61.8%.

With `CN[C@@H]1CCc2[nH]c3ccc(C(N)=O)cc3c2C1` [frovatriptan], the “efficacy in 2-hour response, 2-hour pain free compared to the other triptans” value in the data set on migraine (oral) is “lowest efficacy”.

`CNS(=O)(=O)CCc1ccc2[nH]cc(C3CCN(C)CC3)c2c1` [naratriptan]: in the data set on migraine (setting [14]), the “% PAIN FREE” value was 3.3% and the “% PAIN RELIEF” value is reported as 27.7%. In the data set on migraine (setting [15]), the “% PAIN FREE” value is given as 20.7% and the “% PAIN RELIEF” value was 48.4%. In the data set on migraine (lowest oral dose), the “pain freedom at 2 hours” value was 18% and the “pain relief at 2 hours” value is given as 49%.
